Assays:
[1] = system: Flkd6 cardiomyocytes whose differentiation was induced from mouse ES cells EMG-7; assay: Proliferation of mouse ES cell (EMG-7)-derived cardiomyocytes Flkd6: number of alpha-MHC-GFP-positive cells; type: cell-based; details: for number of alpha-MHC-GFP-positive cells after addition (screening): Flkd6 purified by FACS, cultured for 5 days, 1 μM BIO, 5 μM SU1498, 5 μM KN93, FIG. 1a; for number of alpha-MHC-GFP-positive cells by FACS: cultured for 2 days (Flkd6+2) or 5 days (Flkd6+5), especially Flkd6+5, FIG. 1b; for cardiomyocyte-proliferation-promoting effect (number of alpha-MHC-GFP-positive cells per well): Flkd6+5, FIGS. 3a, 3b, 3d
Experimental: The human iPS cells (253G1) were provided by Prof. […] 253G1 cells are available from RIKEN BRC.
Thereafter, Flk1-positive cells were separated using FACS, and the separated cells were cultured on OP9 cells using a 3 μg/ml Cyclosporine A-containing medium (alpha MEM supplemented with 10% FBS) for 6 days, to induce differentiation into cardiomyocytes. These cells are hereinafter referred to as Flkd6.
The above-mentioned Flkd6, obtained by differentiation of EMG-7, was subjected to purification by FACS using alpha-MHC-GFP as an index. […] These three agents were added to Flkd6, and the cells were then cultured for 2 days (Flkd6+2) or 5 days (Flkd6+5), followed by measuring the number of alpha-MHC-GFP-positive cells by FACS.

[2] = system: Flkd6 cardiomyocytes whose differentiation was induced from EMG-7; assay: Influence on cell cycle: cells positive for pH3 (M phase) or EdU (S phase) in Flkd6; type: cell-based, mouse; details: Flkd6 cultured with agent; FIG. 2
Experimental: DMSO is a control wherein only a solvent was added.
In order to examine the influence on the cell cycle, the number of cells positive for phosphorylation of histone 3 (pH3) (M phase) or ethynyl […] (EdU) (S phase) was assayed (FIG. 2a-d).

Row | SMILES | number of alpha-MHC-GFP-positive cells after addition (screening) [1] | number of alpha-MHC-GFP-positive cells by FACS [1] | influence on the cell cycle: pH3 (M phase) or EdU (S phase) positive cells [2] | cardiomyocyte-proliferation-promoting effect (number of alpha-MHC-GFP-positive cells per well) [1]
1 | O=C1Nc2cc(Br)ccc2/C1=C1/Nc2ccccc2/C1=N\O [BIO, 6-bromoindirubin 3′-oxime] | significantly increased the number of alpha-MHC-GFP-positive cells | significant increase in the number of the positive cells | promotes the S phase and the M phase from the early stage after its addition | 
2 | Cc1c[nH]c(-c2cnc(NCCNc3ccc(C#N)cn3)nc2-c2ccc(Cl)cc2Cl)n1 [CHIR99021] |  |  |  | also have similar effects
3 | CN([C@@H](Cc1ccc(OS(=O)(=O)c2cccc3cnccc23)cc1)C(=O)N1CCN(c2ccccc2)CC1)S(=O)(=O)c1cccc2cnccc12 [KN62, 1-[N,O-bis(5-isoquinolinesulfonyl)-N-methyl-L-tyrosyl]-4-phenylpiperazine] |  |  |  | also have similar effects
4 | COc1ccc(S(=O)(=O)N(CCO)c2ccccc2CN(C)CC=Cc2ccc(Cl)cc2)cc1 [KN93] | significantly increased the number of alpha-MHC-GFP-positive cells | significant increase in the number of the positive cells |  | 
5 | CC(C)c1cc(/C=C(\C#N)C(=O)NCCCc2ccccc2)cc(C(C)C)c1O [SU1498, (E)-3-(3,5-diisopropyl-4-hydroxyphenyl)-2-[(3-phenyl-n-propyl)aminocarbonyl]acrylonitrile] | significantly increased the number of alpha-MHC-GFP-positive cells | significant increase in the number of the positive cells |  | 
6 | Cc1ccc(NC(=O)c2cccc(N(C)C)c2)cc1NC(=O)c1ccc(O)cc1 [ZM336372, 3-(dimethylamino)-N-[3-[(4-hydroxybenzoyl)amino]-4-methylphenyl]benzamide] |  |  |  | has a cardiomyocyte-proliferation-promoting effect
